# Assay results taken from PMC8041284, “Tunable Methacrylamides for Covalent Ligand Directed Release Chemistry” (Journal of the American Chemical Society, 2021).
# Like-named read-outs stand apart in the source and are kept apart here. Where a SMILES comes first, the peptide text is derived from it. Bridges are numbered along the chain shown (N, C = ends). [ ]: non-standard residue; d: D form. The star is where a group is joined. Ileψ(thiazoline)Cys = CC[C@H](C)[C@H](N)C1=N[C@H](C(=O)*)CS1; dOrn = NCCC[C@@H](N)C(=O)O
# Biological target: BTK (Homo sapiens, UniProt Q06187)
# Sequence (Q06187 402-655 limits assumed): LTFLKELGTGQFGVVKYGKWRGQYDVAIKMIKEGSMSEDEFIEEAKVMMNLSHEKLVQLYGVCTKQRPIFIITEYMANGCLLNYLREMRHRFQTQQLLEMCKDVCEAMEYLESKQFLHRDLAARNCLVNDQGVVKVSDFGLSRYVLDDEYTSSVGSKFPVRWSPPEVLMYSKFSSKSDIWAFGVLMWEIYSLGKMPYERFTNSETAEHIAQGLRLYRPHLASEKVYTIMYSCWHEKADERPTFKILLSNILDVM
# Experiment: biochemical
# [1] = read-out: BTK inhibition (%), 0.75 uM BTK, […] probe 3l, 15 min preincubation
inhibition at 10 µM [1],SMILES,inhibition at 10 µM (read-out: BTK inhibition (%))
-34.2%,O=C(/C=C/c1ccc(O)c2c1[C@H](C(=O)O[C@H](Cc1ccc(O)c(O)c1)C(=O)O)[C@@H](c1ccc(O)c(O)c1)O2)O[C@H](Cc1ccc(O)c(O)c1)C(=O)O [PCM-0214854],–
-11.6%,O=C(NNc1ccccc1)c1ccncc1 [PCM-0095808],–
0%,O=C(Cc1cccc(OC(F)(F)F)c1)Nc1ccc(CCCCc2nnc(NC(=O)Cc3ccccn3)s2)nn1 [PCM-0215461],–
3.9%,CC(C)(C)C(=O)OCOP(=O)(COCCn1cnc2c(N)ncnc21)OCOC(=O)C(C)(C)C [PCM-0095170],–
6.2%,CN1C(=O)[C@@H](NC(=O)c2n[nH]c(Cc3ccccc3)n2)COc2ccccc21 [PCM-0215843],–
66.1%,COc1cc(C2Oc3cc(C4Oc5cc(O)cc(O)c5C(=O)C4O)ccc3OC2CO)ccc1O (stereo not drawn) [PCM-0094811],–
-4.6%,Cc1ccc(S(=O)(=O)Cc2nc(-c3ccc(C(=O)NCc4cccnc4)cc3)oc2C)cc1 [PCM-0215271],–
-17%,Cn1c(-c2ccccc2C(F)(F)F)nnc1C12CCC(c3noc(C4CC(F)(F)C4)n3)(CC1)CC2 [PCM-0215687],–
-13.9%,CCCCCCCCC/C(=C\C1=C(C)C(=O)C(OC)=C(OC)C1=O)C(=O)O [PCM-0215484],–
21.6%,COc1cc(C2Oc3ccc([C@H]4Oc5cc(O)cc(O)c5C(=O)[C@@H]4O)cc3OC2CO)ccc1O (stereo partly drawn) [PCM-0216498],–
8.3%,CC1=C(CC(=O)O)c2cc(F)ccc2/C1=C\c1ccc([S+](C)[O-])cc1 (stereo not drawn) [PCM-0065451],–
33.5%,COc1ccc(Cn2ccc3ccc(C(=O)NO)cc32)cc1 [PCM-0095291],–
2.1%,COC(=O)C1=CC[C@@]23CC[C@@H]([C@@](C)(/C=C/C=C(\C)C(=O)O)OC2=O)[C@@]3(OC(C)=O)CC1 [PCM-0216239],–
32.4%,CNc1ccc([N+](=O)[O-])c(Nc2ccc3[nH]ncc3c2)n1 [PCM-0215769],–
-14.5%,CC(=O)Nc1ccccc1 [PCM-0090657],–
-19.3%,COc1cc(-c2cc(-c3ccc(N4CCNCC4)cc3)cnc2C)cc(OC)c1OC [PCM-0215462],–
16.3%,O=C1C(=O)c2ccccc2C(O)=C1C1CCC(c2ccc(Cl)cc2)CC1 (stereo not drawn) [PCM-0214729],–
-11.6%,Brc1ccc2[nH]ccc2c1 [PCM-0216166],–
6.9%,COCCNC(=O)Nc1ccc2nc(-c3cccs3)c(-c3cccs3)nc2c1 [PCM-0215879],–
22.4%,COc1ccc(N2C(=O)/C(=C\c3ccc([N+](=O)[O-])s3)SC2=S)cc1 [PCM-0215671],–
10.1%,O=C(O)C1=C[C@@H](O)[C@@H](O)[C@H](O)C1 [PCM-0094809],–
-22.6%,COc1cccc(CCc2ccccc2OCC(CN(C)C)OC(=O)CCC(=O)O)c1 (stereo not drawn) [PCM-0214923],–
-44.8%,Cc1cc2c(F)c(Oc3ncnn4cc(OC[C@@H](C)OC(=O)[C@H](C)N)c(C)c34)ccc2[nH]1 [PCM-0094946],–
13.1%,CC(=O)O[C@@H]1C[C@H](C)CC[C@H]1C(C)C [PCM-0216217],–

inhibition at 10 µM [1],SMILES,inhibition at 10 µM (read-out: BTK inhibition (%))
-8.6%,Cc1cccc(C)c1NC(=O)CN1CCCC1=O [PCM-0065191],–
18.6%,Oc1ccc(-c2nc(-c3ccc(F)cc3)c(-c3ccncc3)[nH]2)cc1 [PCM-0064463],–
-0.8%,CC(=O)c1cc2c(o1)C(=O)c1ccccc1C2=O [PCM-0215544],–
-8.5%,O=C(CSc1nc2c(c(=O)n1-c1ccccc1)SCC2)Nc1ccc(-c2ccccc2)cn1 [PCM-0215278],–
-13.2%,Cc1nnc(SCC2=C(C(=O)O)N3C(=O)[C@@H](NC(=O)Cn4cc(Cl)c(=O)c(Cl)c4)[C@H]3SC2)s1 [PCM-0215135],–
17.2%,NC(=O)c1ccc(-c2nc(-c3ccc4c(c3)OCCO4)c(-c3ccccn3)[nH]2)cc1 [PCM-0215472],–
106%,C=CC(=O)Nc1ccc2ncnc(Nc3cccc(Br)c3)c2c1 [PCM-0095572],–
-3.1%,O=c1[nH]cnc2c1ncn2[C@@H]1O[C@H](CO)[C@@H](O)[C@H]1O [PCM-0094864],–
37.8%,COc1cc2c(cc1OC)CN(C(=O)/C=C/c1c(-c3ccccc3)n(C)c3ncccc13)CC2 [PCM-0215686],–
-7.8%,O=C1CN(/N=C/C=C/c2ccc([N+](=O)[O-])o2)C(=O)N1 [PCM-0214924],–
8.5%,CN[C@@H]1[C@@H](O[C@H]2O[C@H](CO)[C@@H](N)[C@H](O)[C@H]2O)O[C@H]2C[C@@H](N)[C@@H](O[C@H]3[C@H](O)[C@@H](O)[C@H](N)C[C@@H]3N)O[C@@H]2[C@@H]1O [PCM-0215222],–
10.8%,CN(C)C(=O)CCSC(SCCC(=O)O)c1cccc(/C=C/c2ccc3ccc(Cl)cc3n2)c1 (stereo not drawn) [PCM-0215726],–
-9.3%,CC(=O)Nc1cccc2c1c(Sc1ccc(Cl)cc1)c(C)n2CC(=O)O [PCM-0215238],–
5.4%,CCc1ccc(Cc2ccc3c(c2)[C@]2(OC3)O[C@H](CO)[C@@H](O)[C@H](O)[C@H]2O)cc1 [PCM-0215855],–
–,C=C[C@@]12CN(C)[C@H]3C[C@]14C(=Nc1ccccc14)[C@@H]1C[C@@H]2[C@@H]3CO1 [PCM-0216515],-16.2%
98.6%,CNC(=O)c1cc(Oc2ccc(NC(=O)Nc3cc(C(C)(C)C)nn3-c3ccc4ncccc4c3)c(F)c2)ccn1 [PCM-0095514],–
-1.5%,Cc1cccc(-c2[nH]c(CNc3ccccc3F)nc2-c2ccc3ncnn3c2)n1 [PCM-0215382],–
17.9%,CC(C)CC(=O)Nc1n[nH]c2c1CN(C(=O)C1CCN(C)CC1)C2(C)C [PCM-0095172],–
1.6%,CC1(C)C2CCC1(C)C(O)C2 (stereo not drawn) [PCM-0214868],–
4.6%,O=C(/C=C/C=C/c1ccccc1)CCc1ccccc1 [PCM-0216550],–
48.3%,CC1=C(C(=O)Nc2cc3cn[nH]c3cc2F)C(c2ccc(C(F)(F)F)cc2)CC(=O)N1 (stereo not drawn) [PCM-0095153],–
-4.8%,CC(=O)O[C@]1(C(C)=O)CC[C@H]2[C@@H]3C=C(C)C4=CC(=O)CC[C@]4(C)[C@H]3CC[C@@]21C [PCM-0214613],–
13.2%,CC(C)(C)NC(=O)[C@H]1CC[C@H]2[C@@H]3CC[C@H]4NC(=O)C=C[C@]4(C)[C@H]3CC[C@]12C [PCM-0214718],–
116%,Cc1ccc(NC(=O)Nc2cc(C(F)(F)F)ccc2F)cc1Nc1ccc2c(c1)NC(=O)/C2=C\c1ccc[nH]1 [PCM-0215372],–

inhibition at 10 µM [1],SMILES,inhibition at 10 µM (read-out: BTK inhibition (%))
-38.6%,C=C1CCC[C@]2(C)C[C@@H]3OC(=O)C(C)=C3C[C@@H]12 [PCM-0216545],–
3.1%,Nc1ncnc2c1ncn2[C@@H]1O[C@H](COP(=O)(O)OP(=O)(O)O)[C@@H](O)[C@H]1O [PCM-0216291],–
6.2%,Clc1ccc(N/N=C(\c2ccccc2)c2ccccn2)nc1 [PCM-0215265],–
43.2%,N#Cc1ccc(-c2csc(NN=C3CCCC3)n2)cc1 [PCM-0215381],–
2.3%,CCOCCn1c(N2CCCN(C)CC2)nc2ccccc21 [PCM-0086037],–
-27.2%,CC[C@H](C)[C@H](N)C1=N[C@H](C(=O)N[C@@H](CC(C)C)C(=O)N[C@H](CCC(=O)O)C(=O)N[C@H](C(=O)N[C@H]2CCCCNC(=O)[C@H](CC(N)=O)NC(=O)[C@@H](CC(=O)O)NC(=O)[C@H](Cc3cnc[nH]3)NC(=O)[C@@H](Cc3ccccc3)NC(=O)[C@H]([C@@H](C)CC)NC(=O)[C@@H](CCCN)NC2=O)[C@@H](C)CC)CS1 [PCM-0215200] ({Ileψ(thiazoline)Cys}-L[dE]IK[dOrn]I[dF]H[dD]N; lactam 4-C),–
-31.9%,CCC(C)(C)c1ccc(CC(C)CN2C[C@@H](C)O[C@@H](C)C2)cc1 (stereo partly drawn) [PCM-0090274],–
-5.4%,Nc1ccnc(=O)[nH]1 [PCM-0215139],–
22.1%,COC(=O)c1ccc2c(C(=Nc3ccc(N(C)C(=O)CN4CCN(C)CC4)cc3)c3ccccc3)c(O)[nH]c2c1 [PCM-0094897],–
-9.3%,O=C(/C=C/c1ccc(CN(CCO)CCc2c[nH]c3ccccc23)cc1)NO [PCM-0095072],–
15.4%,COC(=O)CC[C@H](NC(=O)[C@H](CC(=O)OC)NC(=O)OCc1ccccc1)C(=O)N[C@H](C(=O)N[C@@H](CC(=O)OC)C(=O)CF)C(C)C [PCM-0215362],–
14%,CC(C)=CCC[C@](C)(O[C@@H]1O[C@H](CO)[C@@H](O)[C@H](O)[C@H]1O)[C@H]1CC[C@]2(C)[C@@H]1[C@H](O)C[C@@H]1[C@@]3(C)CC[C@H](O)C(C)(C)[C@@H]3[C@@H](O[C@@H]3O[C@H](CO)[C@@H](O)[C@H](O)[C@H]3O)C[C@]12C [PCM-0215029],–
-7%,COc1ccc([C@@H]2CC(=O)c3c(O)cc(O[C@@H]4O[C@H](CO[C@@H]5O[C@@H](C)[C@H](O)[C@@H](O)[C@H]5O)[C@@H](O)[C@H](O)[C@H]4O)cc3O2)cc1O [PCM-0214677],–
6.9%,CCCCOc1ccc(CC(=O)NO)cc1 [PCM-0085771],–
15.9%,C[C@@H]1O[C@@H](O[C@@H]2[C@@H](O)[C@H](OCCc3ccc(O)c(O)c3)O[C@H](CO)[C@H]2OC(=O)/C=C/c2ccc(O)c(O)c2)[C@H](O)[C@H](O)[C@H]1O [PCM-0216174],–
4.7%,Cc1nnc(C(=O)NC(C)(C)c2nc(C(=O)NCc3ccc(F)cc3)c(O)c(=O)n2C)o1 [PCM-0095277],–
0%,CCCC(=O)O [PCM-0095272],–
-2.3%,NCCCCCC(=O)O [PCM-0064402],–
-6.2%,CCOc1cc(N2CCC(O)CC2)ccc1Nc1ncc2c(n1)N(C)c1ccccc1C(=O)N2C [PCM-0095769],–
-14%,CCOC(=O)c1c(C)n(C)c2ccc(O)cc12 [PCM-0095233],–
-6.9%,Cn1cnc(-c2cc3nccc(Oc4ccc(NC(=S)NC(=O)Cc5ccccc5)cc4F)c3s2)c1 [PCM-0094974],–
25.5%,C/C(=N\NC(=O)c1cccc(S(=O)(=O)N2CCOCC2)c1)c1cc(Cl)ccc1O [PCM-0215399],–

SMILES,inhibition at 10 µM [1],inhibition at 10 µM (read-out: BTK inhibition (%))
C=C[C@H]1CN2CC[C@]3(C(=O)Nc4ccccc43)[C@@H]2C[C@@H]1/C(=C\OC)C(=O)OC [PCM-0216538],6.2%,–
COc1ccc(/C=C\c2cc(OC)c(OC)c(OC)c2)cc1OP(=O)(O)O [PCM-0215231],-27.2%,–
